In article PMC9814838, “The orphan nuclear receptor Nurr1 is responsive to non-steroidal anti-inflammatory drugs” (Communications Chemistry, 2020):
Where two headings read alike, the source gives them in different places.

Assays:
Format in all cases: cell-based
Nur77 = target: T1, Nur77 (Homo sapiens, UniProt P22736); assay: Gal4-Nur77 hybrid reporter gene assay in HEK293T cells; conditions: for Nur77 activity 10μM (mean fold activation) / Nur77 activity 30μM (mean fold activation): primary screen, n ≥ 2, ^# not significant vs VP16 control; for Nur77 min./max. activation: compared to 0.1% DMSO
T1 construct: Nur77 (uniprot entry: hNUR77–P22736, residues 358–598); expressed in transfected cells; host or cells: HEK293T

NOR1 = target: T2, NOR1 (Homo sapiens, UniProt Q92570); assay: Gal4-NOR1 hybrid reporter gene assay in HEK293T cells; conditions: for Nor1 activity 10μM (mean fold activation) / Nor1 activity 30μM (mean fold activation): primary screen, n ≥ 2, ^# not significant vs VP16 control; for NOR1 min./max. activation: compared to 0.1% DMSO
T2 construct: NOR1 (isoform alpha; uniprot entry: hNOR1–Q92570-1, residues 393–626); expressed in transfected cells; host or cells: HEK293T
T2 sequence (Q92570 393-626): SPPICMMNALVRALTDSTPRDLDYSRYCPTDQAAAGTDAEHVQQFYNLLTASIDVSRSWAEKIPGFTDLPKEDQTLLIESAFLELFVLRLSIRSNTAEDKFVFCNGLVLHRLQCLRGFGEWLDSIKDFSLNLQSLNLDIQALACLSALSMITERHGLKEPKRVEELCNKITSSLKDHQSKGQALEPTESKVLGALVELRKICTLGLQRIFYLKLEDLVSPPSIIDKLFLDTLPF

Nurr1 = target: T3, Nurr1 (Homo sapiens, UniProt P43354); assay: Gal4-Nurr1 hybrid reporter gene assay in HEK293T cells; conditions: primary screen, n ≥ 2, ^# not significant vs VP16 control
T3 construct: Nurr1 (uniprot entry: hNURR1–P43354, residues 360–598); expressed in transfected cells; host or cells: HEK293T

[1] = dash = not reported as active versus VP16 control (p < 0.05)

T3 sequence (P43354 360-598): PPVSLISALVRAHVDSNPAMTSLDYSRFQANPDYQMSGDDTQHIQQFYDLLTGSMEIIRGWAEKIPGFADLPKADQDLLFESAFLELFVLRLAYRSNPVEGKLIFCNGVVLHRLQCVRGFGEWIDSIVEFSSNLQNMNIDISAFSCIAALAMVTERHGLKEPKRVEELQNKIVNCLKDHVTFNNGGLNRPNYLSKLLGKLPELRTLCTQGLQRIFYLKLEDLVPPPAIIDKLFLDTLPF
T1 sequence (P22736 358-598): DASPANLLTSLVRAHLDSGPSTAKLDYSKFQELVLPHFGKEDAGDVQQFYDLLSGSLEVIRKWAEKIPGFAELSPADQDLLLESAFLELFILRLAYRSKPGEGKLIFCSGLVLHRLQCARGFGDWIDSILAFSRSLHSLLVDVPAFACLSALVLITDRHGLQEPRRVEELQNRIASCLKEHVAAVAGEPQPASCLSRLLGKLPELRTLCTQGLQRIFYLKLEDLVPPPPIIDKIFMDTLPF

| Nur77 activity 10μM (mean fold activation) (Nur77) | Nur77 activity 30μM (mean fold activation) (Nur77) | Nor1 activity 10μM (mean fold activation) (NOR1) | Nor1 activity 30μM (mean fold activation) (NOR1) | Nurr1 activity 10μM (mean fold activation) (Nurr1) | Nurr1 activity 30μM (mean fold activation) (Nurr1) | IC50 (Nur77; HEK293T, mean ± SD, n≥3) | Nur77 activity in words or dash (Nur77; [1]) | IC50 (NOR1; HEK293T, mean ± SD, n≥3, read-out: NOR1 IC50) | NOR1 activity in words or dash (NOR1; [1]) | SMILES | Nur77 min./max. activation (Nur77; mean ± SD) | NOR1 min./max. activation (NOR1; mean ± SD) | IC50 (NOR1) |
| --- | --- | --- | --- | --- | --- | --- | --- | --- | --- | --- | --- | --- | --- |
| 1.03 fold | 0.92 fold | 1.05 fold | 1.01 fold | 0.98 fold | 0.98 fold | – | – | – | – | CN1C(C(=O)Nc2ccccn2)=C(O)c2ccccc2S1(=O)=O [piroxicam] | – | – | – |
| 0.93 fold | 0.96 fold | 0.98 fold | 0.91 fold | 1.25 fold | 1.05 fold | – | – | – | – | CC(C(=O)O)c1ccc(-c2ccccc2)c(F)c1 (stereo not drawn) [flurbiprofen] | – | – | – |
| 0.98 fold | 0.97 fold | 1.09 fold | 1.23 fold | 1.02 fold | 0.92 fold | – | – | – | – | NC(=O)Cc1cccc(C(=O)c2ccccc2)c1N [nepafenac] | – | – | – |
| 0.80 fold | 0.84 fold | 0.89 fold | 0.84 fold | 0.97 fold | 0.94 fold | – | – | – | – | CC(C(=O)O)c1ccc2c(c1)CC(=O)c1ccccc1S2 (stereo not drawn) [zaltoprofen] | – | – | – |
| 0.99 fold | 0.89 fold | 0.95 fold | 0.96 fold | 1.02 fold | 0.90 fold | – | – | – | – | CC(C)Cc1ccc(C(C)C(=O)O)cc1 (stereo not drawn) [ibuprofen] | – | – | – |
| 1.57 fold | 1.44 fold | 1.69 fold | 1.74 fold | 1.44 fold | 1.46 fold | – | – | – | – | COc1ccc2cc(CCC(C)=O)ccc2c1 [nabumeton] | – | – | – |
| 0.99 fold | 1.07 fold | 1.09 fold | 1.09 fold | 1.14 fold | 1.15 fold | – | – | – | – | COc1ccc2cc([C@H](C)C(=O)O)ccc2c1 [naproxen] | – | – | – |
| 0.98 fold | 0.98 fold | 0.95 fold | 0.90 fold | 1.04 fold | 0.99 fold | – | – | – | – | CN1C(C(=O)Nc2ccccn2)=C(O)c2sccc2S1(=O)=O [tenoxicam] | – | – | – |
| 0.98 fold | 0.69 fold | 1.00 fold | 0.78 fold | 0.94 fold | 0.94 fold | 30 ± 1 µM | inverse agonism | 33 ± 5 µM | inverse agonism | COc1ccc(-c2noc(CC(=O)O)c2-c2ccc(OC)cc2)cc1 [mofezolac] | 0.38 ± 0.02 | 0.32 ± 0.10 | – |

The next lines start with the molecule.

| SMILES | Nur77 activity 10μM (mean fold activation) (Nur77) | Nur77 activity 30μM (mean fold activation) (Nur77) | Nor1 activity 10μM (mean fold activation) (NOR1) | Nor1 activity 30μM (mean fold activation) (NOR1) | Nurr1 activity 10μM (mean fold activation) (Nurr1) | Nurr1 activity 30μM (mean fold activation) (Nurr1) | IC50 (Nur77; HEK293T, mean ± SD, n≥3) | Nur77 activity in words or dash (Nur77; [1]) | IC50 (NOR1; HEK293T, mean ± SD, n≥3, read-out: NOR1 IC50) | NOR1 activity in words or dash (NOR1; [1]) | Nur77 min./max. activation (Nur77; mean ± SD) | NOR1 min./max. activation (NOR1; mean ± SD) | IC50 (NOR1) |
| --- | --- | --- | --- | --- | --- | --- | --- | --- | --- | --- | --- | --- | --- |
| O=C(O)Cc1ccccc1Nc1c(Cl)cccc1Cl [diclofenac] | 0.94 fold | toxic | 1.11 fold | toxic | 1.19 fold | toxic | – | – | – | – | – | – | – |
| CCc1cccc2c3c([nH]c12)C(CC)(CC(=O)O)OCC3 (stereo not drawn) [etodolac] | 0.85 fold | 0.90 fold | 0.95 fold | 0.91 fold | 1.06 fold | 0.93 fold | – | – | – | – | – | – | – |
| Cc1c(Cl)cccc1Nc1ccccc1C(=O)O [tolfenamic acid] | toxic | toxic | toxic | toxic | 1.18 fold | toxic | – | – | – | – | – | – | – |
| Cc1ccc(-c2cc(C(F)(F)F)nn2-c2ccc(S(N)(=O)=O)cc2)cc1 [celecoxib] | 0.75 fold | toxic | 0.92 fold | toxic | 0.93 fold | 0.97 fold | – | – | – | – | – | – | – |
| Nc1c(CC(=O)O)cccc1C(=O)c1ccc(Br)cc1 [bromfenac] | 1.08 fold | 1.03 fold | 1.26 fold | 1.09 fold | 1.09 fold | 1.12 fold | – | – | – | – | – | – | – |
| Cc1c(Nc2ncccc2C(=O)O)cccc1C(F)(F)F [flunixin] | toxic | toxic | toxic | toxic | toxic | toxic | – | – | – | – | – | – | – |
| O=C(OCCOCCO)c1ccccc1Nc1cccc(C(F)(F)F)c1 [etofenamate] | 0.84 fold | toxic | 1.07 fold | toxic | 0.97 fold | toxic | – | – | – | – | – | – | – |
| Cc1cccc(Nc2ccccc2C(=O)O)c1C [mefenamic acid] | 0.80 fold | toxic | 0.95 fold | toxic | 0.90 fold | 0.86 fold | – | – | – | – | – | – | – |
| COc1ccc2c(c1)c(CC(=O)O)c(C)n2C(=O)c1ccc(Cl)cc1 [indometacin] | 0.83 fold | toxic | 0.87 fold | toxic | 0.96 fold | 0.91 fold | – | – | – | – | – | – | – |
| CC(C(=O)O)c1cccc(Oc2ccccc2)c1 (stereo not drawn) [fenoprofen] | 0.99 fold | 0.86 fold | 1.01 fold | 0.81 fold | 1.00 fold | 0.91 fold | – | – | – | – | – | – | – |
| CC(C(=O)O)c1ccc2c(c1)[nH]c1ccc(Cl)cc12 (stereo not drawn) [carprofen] | 1.08 fold | 0.95 fold | 1.17 fold | 0.99 fold | 1.10 fold | 1.19 fold | – | – | – | – | – | – | – |
| Cc1cnc(NC(=O)C2=C(O)c3ccccc3S(=O)(=O)N2C)s1 [meloxicam] | – | – | – | – | – | – | – | – | – | – | 0.23 ± 0.02 | 0.1 ± 0.1 | 84 ± 17 µM |
